Source: the supplement of paper PMC10307832

Legend:
Assay in all cases: relative viability (nuclei count vs DMSO), 5 days (fraction); higher = more cells survive
[1] = compound: Cc1cc(Nc2cc(N3CCN(C)CC3)nc(Sc3ccc(NC(=O)C4CC4)cc3)n2)n[nH]1 [Tozasertib] + CS(=O)(=O)CCNCc1ccc(-c2ccc3ncnc(Nc4ccc(OCc5cccc(F)c5)c(Cl)c4)c3c2)o1 [Lapatinib] (partner 2 µM)
Summary of the method: (§1)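 Relative viability divides the nuclei count in treated wells by that in vehicle wells. Lung cancer cell lines were seeded in 1536-well plates, dosed by pin tool the next day, and fixed and stained after 5 days in one step with final 0.05% Triton X-100, 1% formaldehyde and 1 ug/ml Hoechst. Dosing was a single drug or a fixed anchor-drug dose plus five library-drug doses (not always all listed) in √10 steps, and values are medians of duplicate plates imaged at 4×.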

[2] = compound: Cc1cc(Nc2cc(N3CCN(C)CC3)nc(Sc3ccc(NC(=O)C4CC4)cc3)n2)n[nH]1 [Tozasertib] + CC(=O)c1c(C)c2cnc(Nc3ccc(N4CCNCC4)cn3)nc2n(C2CCCC2)c1=O [Palbociclib] (partner 0.5 µM)
Summary of the method: as §1

[3] = compound: Cc1cc(Nc2cc(N3CCN(C)CC3)nc(Sc3ccc(NC(=O)C4CC4)cc3)n2)n[nH]1 [Tozasertib] + COc1cccc2cc(-c3nc([C@H]4CC[C@H](C(=O)O)CC4)n4ncnc(N)c34)[nH]c12 [OSI-027] (partner 0.5 µM)
Summary of the method: as §1

[4] = compound: Cc1cc(Nc2cc(N3CCN(C)CC3)nc(Sc3ccc(NC(=O)C4CC4)cc3)n2)n[nH]1 [Tozasertib] + COc1cc2c(Oc3ccc(NC(=O)C4(C(=O)Nc5ccc(F)cc5)CC4)cc3F)ccnc2cc1OCCCN1CCOCC1 [Foretinib] (partner 0.25 µM)
Summary of the method: as §1

[5] = compound: Cc1cc(Nc2cc(N3CCN(C)CC3)nc(Sc3ccc(NC(=O)C4CC4)cc3)n2)n[nH]1 [Tozasertib] + NC(=O)Nc1cc(-c2cccc(F)c2)sc1C(=O)N[C@H]1CCCNC1 [AZD7762] (partner 0.2 µM)
Summary of the method: as §1

| Cell Line | relative viability ([1]; first compound 0.004 µM) | relative viability ([1]; first compound 0.01265 µM) | relative viability ([1]; first compound 0.04 µM) | relative viability ([1]; first compound 0.1265 µM) | relative viability ([2]; first compound 0.004 µM) | relative viability ([2]; first compound 0.01265 µM) | relative viability ([2]; first compound 0.04 µM) | relative viability ([2]; first compound 0.1265 µM) | relative viability ([3]; first compound 0.004 µM) | relative viability ([3]; first compound 0.01265 µM) | relative viability ([3]; first compound 0.04 µM) | relative viability ([3]; first compound 0.1265 µM) | relative viability ([4]; first compound 0.004 µM) | relative viability ([4]; first compound 0.01265 µM) | relative viability ([4]; first compound 0.04 µM) | relative viability ([4]; first compound 0.1265 µM) | relative viability ([5]; first compound 0.004 µM) | relative viability ([5]; first compound 0.01265 µM) | relative viability ([5]; first compound 0.04 µM) | relative viability ([5]; first compound 0.1265 µM) |
| --- | --- | --- | --- | --- | --- | --- | --- | --- | --- | --- | --- | --- | --- | --- | --- | --- | --- | --- | --- | --- |
| H3255 | 0.256 | 0.229 | 0.236 | 0.228 | 0.33 | 0.292 | 0.315 | 0.324 | 0.452 | 0.492 | 0.61 | 0.459 | 1.43 | 0.698 | 0.868 | 0.706 | 0.837 | 0.786 | 0.884 | 0.684 |
| ABC-1 | 1.26 | 1.04 | 1.13 | 1.24 | 0.722 | 0.769 | 0.44 | 0.533 | 0.542 | 0.495 | 0.58 | 0.207 | 0.988 | 1.27 | 0.838 | 0.381 | 1.01 | 0.789 |  | 1.16 |
| CAL-12T | 0.651 | 0.596 | 0.626 | 0.414 | 0.713 | 0.41 | 0.459 | 0.242 | 0.954 | 0.562 | 0.719 | 0.214 | 1.19 | 1.04 | 1.11 | 1.11 | 0.563 | 0.553 | 0.545 | 0.494 |
| LCLC-97TM1 |  | 0.884 | 1.04 | 0.592 | 0.232 | 0.223 | 0.222 | 0.21 | 0.571 | 0.507 | 0.526 | 0.371 | 1.03 | 0.895 | 0.95 | 0.695 | 0.166 | 0.194 | 0.164 | 0.211 |
| EMC-BAC-2 | 0.851 |  | 0.908 | 0.567 | 0.542 | 0.501 | 0.514 | 0.433 | 0.381 | 0.389 | 0.381 | 0.262 | 1.1 | 0.935 | 1.02 | 0.642 | 1.15 | 1.12 | 0.93 | 0.47 |
| LXF-289 | 0.956 | 0.846 | 0.823 | 0.722 | 0.63 | 0.6 | 0.561 | 0.583 | 0.695 | 0.731 | 0.779 | 0.441 | 1.06 | 0.963 | 0.912 | 0.739 | 1.12 | 1.02 | 1.04 | 0.619 |
| NCI-H2085 | 0.784 | 0.715 | 0.774 | 0.446 | 0.462 | 0.455 | 0.464 | 0.475 | 0.769 | 0.726 | 0.828 | 0.695 | 1.03 | 0.767 | 1.03 | 0.703 | 0.928 | 0.906 | 0.971 | 0.929 |
| NCI-H647 | 1.13 | 0.989 | 0.895 | 0.235 | 0.457 | 0.398 | 0.425 | 0.299 | 0.836 | 0.763 | 0.763 | 0.33 | 1.24 | 1.28 | 1.34 |  | 0.567 | 0.418 | 0.43 | 0.0736 |
| NCI-H1734 | 1.06 |  |  | 0.497 | 0.361 | 0.308 | 0.364 | 0.306 | 0.597 | 0.596 | 0.557 | 0.435 | 0.888 |  | 0.824 | 0.414 | 0.506 | 0.559 | 0.532 | 0.228 |
| HCC-366 | 1.1 | 0.992 |  | 0.0536 | 0.4 | 0.391 | 0.502 | 0.227 | 0.991 | 0.862 | 1.01 | 0.575 |  | 0.912 | 0.63 | 0.0962 | 0.355 | 0.282 | 0.337 | 0.203 |
| NCI-H1993 | 0.804 | 0.82 | 0.829 | 0.772 | 0.622 | 0.63 | 0.681 | 0.743 | 0.485 | 0.505 | 0.569 | 0.524 | 0.944 | 0.732 | 0.848 | 0.726 | 0.708 | 0.761 | 0.837 | 0.542 |
| NCI-H1651 | 0.973 | 0.806 |  | 0.392 | 0.54 | 0.515 | 0.539 | 0.519 | 0.888 | 0.645 |  | 0.666 | 0.694 | 0.773 | 0.856 | 0.87 | 0.469 | 0.464 | 0.498 | 0.422 |
| HCC-15 | 0.992 | 0.852 | 0.92 | 0.751 | 0.752 | 0.675 | 0.73 | 0.621 | 0.745 | 0.64 | 0.665 | 0.419 | 1.1 | 0.99 | 1.1 | 0.764 | 1.49 | 1.06 | 1.26 | 0.964 |
| HCC-827 | 0.222 | 0.18 | 0.215 | 0.192 | 0.511 | 0.516 | 0.603 | 0.493 | 0.314 |  | 0.789 | 0.582 | 0.996 | 1.03 | 1.13 | 0.758 | 0.16 | 0.204 | 0.23 | 0.2 |
| HOP-62 | 1.06 | 0.999 | 0.856 | 0.943 | 0.53 | 0.483 | 0.556 | 0.439 | 0.902 | 0.844 | 0.941 | 0.793 | 0.953 | 1.07 | 1.06 | 0.915 | 0.505 | 0.485 | 0.613 | 0.289 |
| NCI-H2087 | 1.14 | 1.06 | 1.05 | 0.805 | 0.248 | 0.204 | 0.231 | 0.128 | 0.638 | 0.576 | 0.64 | 0.444 | 1.16 | 0.796 | 1.15 | 0.613 | 1.13 | 1.24 | 1.33 | 1.01 |
| NCI-H3122 | 0.974 | 0.992 | 1.02 | 1.04 | 0.157 | 0.159 | 0.211 | 0.201 | 1.04 | 0.915 | 0.967 | 0.928 | 0.969 | 0.94 | 0.977 | 0.944 | 1 | 0.952 | 1.06 | 1.07 |
| PC-3 [JPC-3] | 0.45 | 0.46 | 0.529 | 0.33 | 0.526 | 0.535 | 0.511 | 0.545 | 0.587 | 0.74 | 0.799 | 0.701 | 1 | 1.06 | 1.07 | 0.961 | 0.789 | 0.734 | 0.774 | 0.684 |
| NCI-H2126 | 0.794 | 0.805 |  | 0.567 | 0.354 | 0.405 | 0.372 | 0.339 | 0.777 | 0.728 | 0.773 | 0.657 | 1.19 | 1.24 | 1.29 | 1.12 | 1.01 |  | 1.05 | 1.02 |
| A-427 | 1.09 |  | 1.04 | 0.824 | 0.55 | 0.487 | 0.517 | 0.423 | 0.457 | 0.478 | 0.48 | 0.332 | 1.03 | 0.935 | 1 | 0.594 | 0.796 | 0.799 | 0.715 | 0.409 |
| NCI-H2170 | 0.271 | 0.288 | 0.278 | 0.251 | 0.402 | 0.382 | 0.391 | 0.337 | 0.639 | 0.713 | 0.792 | 0.628 | 0.985 | 0.591 |  | 0.907 | 0.81 | 0.893 | 0.848 | 0.788 |
| NCI-H23 | 1.1 | 0.96 | 0.989 | 0.269 | 0.58 | 0.518 | 0.498 | 0.313 | 0.614 | 0.629 | 0.666 | 0.453 | 1.02 | 0.887 | 0.848 | 0.331 | 0.199 | 0.259 | 0.216 | 0.186 |
| NCI-H1793 | 0.699 | 0.598 | 0.573 | 0.364 | 0.307 | 0.312 | 0.367 | 0.295 | 0.229 | 0.214 | 0.358 | 0.228 |  | 0.56 | 0.596 | 0.389 | 0.405 | 0.425 | 0.59 | 0.486 |
| RERF-LC-KJ | 0.86 | 0.838 | 0.925 | 0.804 | 1.14 | 0.973 | 1.01 | 0.969 |  | 0.597 | 0.59 | 0.484 | 0.795 | 0.831 | 0.957 |  | 1.08 |  | 1.06 | 0.371 |
| NCI-H358 | 0.54 | 0.376 | 0.439 | 0.206 | 0.14 | 0.135 | 0.168 | 0.0747 | 0.779 | 0.803 | 0.982 | 0.125 | 0.736 | 0.617 | 0.545 | 0.106 | 0.393 |  | 0.475 | 0.227 |
| LOU-NH91 | 0.789 | 0.742 | 0.803 | 0.638 | 0.526 | 0.536 | 0.512 | 0.529 |  | 0.675 | 0.763 | 0.728 |  | 0.923 | 1.02 | 0.918 | 0.733 | 0.719 | 0.838 | 0.64 |
| NCI-H1915 | 1.05 | 0.968 | 0.897 | 0.688 | 0.515 | 0.498 | 0.535 | 0.465 | 0.669 | 0.592 | 0.658 | 0.569 | 1.16 | 1.02 | 1.06 | 0.862 | 0.75 | 0.718 | 0.659 | 0.493 |
| NCI-H650 | 1.05 | 0.844 | 0.991 | 0.454 | 0.362 | 0.288 | 0.317 | 0.313 | 0.549 | 0.512 | 0.535 | 0.452 | 1.14 |  | 1.02 | 0.879 | 0.935 | 1.07 | 0.797 | 1.05 |
